We go through eight compounds from patent US12331044B2, “Inhibitors of histone deacetylase useful for the treatment or prevention of HIV infection” (Merck Sharp & Dohme LLC, priority 2018, dated 2025).

In one assay the target is human HDAC2 (Homo sapiens (Human), UniProt Q92769). Briefly: HDAC2 inhibition assay (modified FLUOR DE LYS, 384-well). Format: biochemical. The conditions noted are these: 40 μM substrate BML-KI104, 3 h pre-incubation, read-out: HDAC2 IC50.
In the next assay the target is human HDAC8 (Homo sapiens (Human), UniProt Q9BY41). Briefly: HDAC8 inhibition assay (modified FLUOR DE LYS, 384-well). It counts as biochemical. The settings on record: 200 μM substrate BML-KI178, 3 h pre-incubation, read-out: HDAC8 IC50.
Assay [1] has as its system KARN cells (Jurkat 2C4). The conditions noted are these: luciferase induction, 2 μM SAHA = 100%.
Assay [2] addresses T1, human HDAC1 (Homo sapiens (Human), UniProt Q13547). Kind of assay: biochemical.
The target in assay [3] is T2, human HDAC3/SMRT heterodimer (Homo sapiens (Human), UniProt O15379). Kind of assay: biochemical.
Assay [4] has as its target T3, HDAC6 (Homo sapiens (Human), UniProt Q9UBN7). Briefly: biochemical.
Experimental: (§1) The histone deacetylase activities of HDAC1, HDAC2, HDAC3, HDAC6, and HDAC8 were measured in modified FLUOR DE LYS assays in 384-well format. In this assay, HDAC enzymes are initially incubated with an F-acetyl (or -trifluoroacetyl)-L-lysine-containing substrate with a C-terminal amide having aminomethylcoumarin as the amine component. HDACs cleave the F-acetyl group, rendering the resulting product susceptible to AMC cleavage by trypsin. The released AMC is then detected by its fluorescence. […] All steps were performed at room temperature (23° C.). The assay was performed by pre-incubating serial dilutions of test compounds with the target HDAC prior to initiation with substrate. […] Final conditions used for each assay were: 1. […] The reactions were stopped and developed by addition of 30 ul of HDAC developer solution containing a saturating level of HDAC inhibitor as follows: 1. […] For data analysis, background subtracted product (fluorescence) vs. time data for each inhibitor concentration was fitted using a 4-parameter fit.
For assay [5], the target named is T1, human HDAC1.
Assay [6] has as its target T2, human HDAC3/SMRT heterodimer.
Assay [7] concerns the target T3, HDAC6.
Experimental: as §1
The subject of assay [8] is KARN cells (Jurkat 2C4). Kind of assay: cells. The settings on record: Homo sapiens.
Setting [9] is: read-out: Karn EC50 nM 0.1% NHS, 0.1% normal human serum.
[10] abbreviates: read-out: Karn EC50 nM 5% NHS, 5% normal human serum.
[11] abbreviates: read-out: Karn EC50 nM 0.1% NHS, 0.1% normal human serum, luciferase induction, 2 μM SAHA = 100%.
Setting [12] is: read-out: Karn EC50 nM 5% NHS, 5% normal human serum, luciferase induction, 2 μM SAHA = 100%.

Like-named read-outs stand apart in the source and are kept apart here. Some results are limits rather than exact numbers.

T1 sequence (Q13547 whole entry): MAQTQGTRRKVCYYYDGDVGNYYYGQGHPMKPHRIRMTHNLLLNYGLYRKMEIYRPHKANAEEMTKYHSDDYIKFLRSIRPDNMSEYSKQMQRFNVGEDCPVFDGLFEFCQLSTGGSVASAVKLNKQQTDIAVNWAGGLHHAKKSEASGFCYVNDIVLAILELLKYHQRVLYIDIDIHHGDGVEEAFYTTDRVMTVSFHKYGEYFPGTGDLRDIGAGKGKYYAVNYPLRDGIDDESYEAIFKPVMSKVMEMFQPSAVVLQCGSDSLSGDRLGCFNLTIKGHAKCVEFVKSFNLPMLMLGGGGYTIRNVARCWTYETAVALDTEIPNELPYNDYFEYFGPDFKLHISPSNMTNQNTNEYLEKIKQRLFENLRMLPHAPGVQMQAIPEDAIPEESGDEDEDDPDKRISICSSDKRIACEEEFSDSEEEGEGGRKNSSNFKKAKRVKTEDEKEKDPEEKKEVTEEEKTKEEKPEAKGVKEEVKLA
Chain of human HDAC2 (Q92769 whole entry): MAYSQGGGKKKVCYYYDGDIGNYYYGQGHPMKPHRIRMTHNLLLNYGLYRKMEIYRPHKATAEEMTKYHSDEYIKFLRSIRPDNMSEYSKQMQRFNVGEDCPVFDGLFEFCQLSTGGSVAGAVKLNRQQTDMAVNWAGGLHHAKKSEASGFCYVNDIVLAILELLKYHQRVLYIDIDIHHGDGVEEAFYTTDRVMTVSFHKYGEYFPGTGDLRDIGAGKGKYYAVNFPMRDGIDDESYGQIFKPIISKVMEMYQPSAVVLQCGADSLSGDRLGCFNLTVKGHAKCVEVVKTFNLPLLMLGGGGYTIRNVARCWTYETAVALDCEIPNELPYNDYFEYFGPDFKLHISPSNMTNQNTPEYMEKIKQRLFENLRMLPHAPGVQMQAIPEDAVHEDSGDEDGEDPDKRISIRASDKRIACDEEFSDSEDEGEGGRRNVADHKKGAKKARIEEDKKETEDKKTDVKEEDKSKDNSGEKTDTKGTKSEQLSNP
Chain of human HDAC8 (Q9BY41 whole entry): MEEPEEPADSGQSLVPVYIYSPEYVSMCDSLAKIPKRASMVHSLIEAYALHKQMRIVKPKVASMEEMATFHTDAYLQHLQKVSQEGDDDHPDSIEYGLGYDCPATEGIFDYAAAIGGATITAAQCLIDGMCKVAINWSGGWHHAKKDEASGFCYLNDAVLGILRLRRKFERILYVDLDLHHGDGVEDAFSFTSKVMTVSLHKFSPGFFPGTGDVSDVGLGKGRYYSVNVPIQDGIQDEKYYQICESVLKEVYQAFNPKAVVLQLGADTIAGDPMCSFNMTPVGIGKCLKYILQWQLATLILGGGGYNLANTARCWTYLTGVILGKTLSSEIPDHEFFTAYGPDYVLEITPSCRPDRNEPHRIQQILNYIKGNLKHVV
T3 sequence (Q9UBN7 whole entry): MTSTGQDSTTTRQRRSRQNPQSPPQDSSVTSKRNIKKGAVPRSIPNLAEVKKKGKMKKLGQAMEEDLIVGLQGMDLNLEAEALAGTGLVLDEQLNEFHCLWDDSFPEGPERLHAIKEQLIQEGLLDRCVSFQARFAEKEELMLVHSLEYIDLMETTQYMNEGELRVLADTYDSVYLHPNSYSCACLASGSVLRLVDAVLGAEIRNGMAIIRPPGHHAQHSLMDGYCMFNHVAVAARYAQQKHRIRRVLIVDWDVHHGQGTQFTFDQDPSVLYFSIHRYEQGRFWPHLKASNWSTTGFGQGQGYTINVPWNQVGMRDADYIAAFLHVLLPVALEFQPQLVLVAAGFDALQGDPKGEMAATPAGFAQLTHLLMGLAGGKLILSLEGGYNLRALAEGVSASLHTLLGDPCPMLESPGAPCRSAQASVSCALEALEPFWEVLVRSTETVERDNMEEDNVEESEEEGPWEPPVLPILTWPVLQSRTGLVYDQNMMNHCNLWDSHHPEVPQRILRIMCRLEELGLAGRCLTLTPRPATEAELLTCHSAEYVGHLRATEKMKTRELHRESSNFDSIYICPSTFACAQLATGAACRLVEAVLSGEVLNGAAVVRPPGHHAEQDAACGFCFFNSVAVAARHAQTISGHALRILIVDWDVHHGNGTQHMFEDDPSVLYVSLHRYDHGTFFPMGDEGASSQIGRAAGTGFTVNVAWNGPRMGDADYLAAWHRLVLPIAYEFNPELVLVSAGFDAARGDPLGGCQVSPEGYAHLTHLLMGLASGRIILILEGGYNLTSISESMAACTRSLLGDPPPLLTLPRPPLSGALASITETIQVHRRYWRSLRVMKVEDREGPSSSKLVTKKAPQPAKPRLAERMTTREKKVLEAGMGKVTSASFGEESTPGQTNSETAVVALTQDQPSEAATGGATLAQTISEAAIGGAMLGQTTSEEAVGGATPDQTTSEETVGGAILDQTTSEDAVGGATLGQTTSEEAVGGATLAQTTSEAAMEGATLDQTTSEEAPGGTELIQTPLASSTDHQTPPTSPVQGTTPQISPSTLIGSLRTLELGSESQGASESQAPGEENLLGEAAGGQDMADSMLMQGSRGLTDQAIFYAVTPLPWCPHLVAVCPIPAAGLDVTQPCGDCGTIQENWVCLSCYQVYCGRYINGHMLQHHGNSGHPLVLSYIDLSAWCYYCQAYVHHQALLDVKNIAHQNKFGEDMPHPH
T2 sequence (O15379 whole entry): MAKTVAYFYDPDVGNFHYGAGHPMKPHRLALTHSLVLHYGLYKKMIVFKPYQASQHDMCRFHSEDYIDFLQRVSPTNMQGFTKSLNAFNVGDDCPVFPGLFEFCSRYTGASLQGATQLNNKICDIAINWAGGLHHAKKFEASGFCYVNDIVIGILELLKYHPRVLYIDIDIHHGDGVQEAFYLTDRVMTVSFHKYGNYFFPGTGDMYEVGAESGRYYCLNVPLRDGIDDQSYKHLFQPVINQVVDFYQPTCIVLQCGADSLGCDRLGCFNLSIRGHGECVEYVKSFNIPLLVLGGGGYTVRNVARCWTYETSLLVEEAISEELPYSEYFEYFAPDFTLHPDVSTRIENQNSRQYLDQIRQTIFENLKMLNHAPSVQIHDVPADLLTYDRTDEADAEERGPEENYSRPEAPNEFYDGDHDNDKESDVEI
T2 sequence (Q9Y618 1-899 partner): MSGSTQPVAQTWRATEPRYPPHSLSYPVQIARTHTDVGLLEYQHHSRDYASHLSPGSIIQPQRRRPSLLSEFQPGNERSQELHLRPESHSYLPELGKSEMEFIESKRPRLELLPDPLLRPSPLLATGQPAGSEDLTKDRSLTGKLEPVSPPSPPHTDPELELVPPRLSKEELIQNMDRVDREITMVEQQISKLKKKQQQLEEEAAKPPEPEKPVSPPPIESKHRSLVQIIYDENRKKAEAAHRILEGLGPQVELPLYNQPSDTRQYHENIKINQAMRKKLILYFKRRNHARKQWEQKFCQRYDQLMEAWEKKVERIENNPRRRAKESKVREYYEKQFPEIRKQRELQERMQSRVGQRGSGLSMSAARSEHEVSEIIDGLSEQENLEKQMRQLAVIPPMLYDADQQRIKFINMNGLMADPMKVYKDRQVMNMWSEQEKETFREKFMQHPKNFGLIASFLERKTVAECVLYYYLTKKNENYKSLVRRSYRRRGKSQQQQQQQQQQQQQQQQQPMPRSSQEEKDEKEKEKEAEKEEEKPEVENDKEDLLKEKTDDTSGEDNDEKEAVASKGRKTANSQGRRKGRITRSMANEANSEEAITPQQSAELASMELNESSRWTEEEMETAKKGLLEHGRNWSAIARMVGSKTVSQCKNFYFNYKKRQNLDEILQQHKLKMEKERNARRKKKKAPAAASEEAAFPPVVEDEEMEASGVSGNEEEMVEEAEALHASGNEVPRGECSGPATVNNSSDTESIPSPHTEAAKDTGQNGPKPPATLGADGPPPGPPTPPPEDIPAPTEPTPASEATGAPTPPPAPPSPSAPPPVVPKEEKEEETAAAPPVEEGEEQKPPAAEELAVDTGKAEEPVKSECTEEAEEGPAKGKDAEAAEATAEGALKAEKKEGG

Regarding `Cc1ccc2cc(-c3cnc([C@H](CCCCCC(=O)c4ncco4)NC(=O)[C@H]4CC45CCN(C)CC5)o3)ccc2n1` [Example 109, (S)-6-methyl-N-((S)-1-(5-(2-methylquinolin-6-yl)oxazol-2-yl)-7-(oxazol-2-yl)-7-oxoheptyl)-6-azaspiro[2.5]octane-1-carboxamide], the IC50 (in general, the concentration that gives 50% inhibition) at human HDAC2 ([…] nM enzyme) came to 39 nM; at human HDAC8 ([…] nM enzyme) it was 5000 nM; at human HDAC1 [2] it was 7.5 nM; in assay [3] it was 7.5 nM; against HDAC6 [4], 23000 nM. The EC50 (in general, the concentration needed to bring the measured effect to its halfway point) in the assay with KARN cells (Jurkat 2C4) [1] (setting [9]) came to 1700 nM; in the assay with KARN cells (Jurkat 2C4) [1] (setting [10]), 2500 nM.

Consider `Cc1ccc2cc(-c3cnc(C(CCCCCC(=O)c4ncco4)NC(=O)[C@H]4CC45CCN(C)CC5)o3)ccc2n1` (stereo partly drawn) [Example 111, (1S)-6-methyl-N-(1-(5-(2-methylquinolin-6-yl)oxazol-2-yl)-7-(oxazol-2-yl)-7-oxoheptyl)-6-azaspiro[2.5]octane-1-carboxamide], for which the 50% inhibitory concentration (IC50) came out at 5.2 nM at human HDAC2 ([…] enzyme); 520 nM on human HDAC8 ([…] enzyme); 0.76 nM at human HDAC1 [5]; 1.4 nM in assay [6]; 430 nM at HDAC6 [7]. The values for the EC50 with KARN cells (Jurkat 2C4) [1] (setting [9]) and with KARN cells (Jurkat 2C4) [1] (setting [10]) were 70 nM and 48 nM, respectively.

Consider `COc1cc2nc(C)ccc2cc1-c1cnc([C@H](CCCCCC(=O)c2ncco2)NC(=O)C2COCCO2)[nH]1` (stereo partly drawn) [Example 174, N-[(1S)-1-[5-(7-methoxy-2-methylquinolin-6-yl)-1H-imidazol-2-yl]-7-(1,3-oxazol-2-yl)-7-oxoheptyl]-1,4-dioxane-2-carboxamide], for which the IC50 at human HDAC2 ([…] enzyme) is 3.7 nM; on human HDAC8 ([…] enzyme), 110 nM; against human HDAC1 [5], 1.4 nM; in assay [6], 0.54 nM; on HDAC6 [7], over 900 nM. Moreover, the EC50 stood at 37 nM with KARN cells (Jurkat 2C4) [1] (setting [9]) and 80 nM in the assay with KARN cells (Jurkat 2C4) [1] (setting [10]).

Turning to `CN(C)CC(=O)N[C@@H](CCCCCC(=O)c1ncco1)c1[nH]c(-c2ccc(F)cc2)nc1C#N` [Example 186, (S)-N-(1-(4-cyano-2-(4-fluorophenyl)-1H-imidazol-5-yl)-7-(oxazol-2-yl)-7-oxoheptyl)-2-(dimethylamino)acetamide], the half-maximal inhibitory concentration (IC50) on human HDAC2 ([…] nM enzyme) is 1.7 nM; on human HDAC8 ([…] nM enzyme), 220 nM; against human HDAC1 [2] it was 0.28 nM; in [3], 0.39 nM; on HDAC6 [4], at least 45000 nM. Besides, the concentration for a half-maximal effect (EC50) turned out to be 12 nM in the assay on KARN cells (Jurkat 2C4) [8] (setting [11]) and 21 nM in the assay with KARN cells (Jurkat 2C4) [8] (setting [12]).

On to `N#Cc1nc(-c2ccc(F)cc2)oc1[C@@H](N)CCCCCC(=O)c1ncco1` [Example 189, (S)-5-(1-amino-7-(oxazol-2-yl)-7-oxoheptyl)-2-(4-fluorophenyl)oxazole-4-carbonitrile], for which the IC50 on human HDAC2 ([…] nM enzyme) was 250 nM; on human HDAC8 ([…] nM enzyme), 25000 nM; on human HDAC1 [2], 26 nM; in assay [3], 45 nM; on HDAC6 [4], at least 45000 nM. Moreover, the EC50 was found to be 3000 nM with KARN cells (Jurkat 2C4) [8] (setting [11]) and 7400 nM with KARN cells (Jurkat 2C4) [8] (setting [12]).

In the case of `CN(C)CC(=O)N[C@@H](CCCCCC(=O)c1ncco1)c1oc(-c2ccc(F)cc2)nc1C#N` [Example 190], the IC50 at human HDAC2 ([…] nM enzyme) was 21 nM; on human HDAC8 ([…] nM enzyme) it was 3200 nM; at human HDAC1 [2], 4.6 nM; in [3], 3.2 nM; against HDAC6 [4] it was at least 45000 nM. Also, the EC50 amounted to 240 nM in the assay with KARN cells (Jurkat 2C4) [8] (setting [11]) and 260 nM in the assay on KARN cells (Jurkat 2C4) [8] (setting [12]).

Take `N[C@@H](CCCCCC(=O)c1ccon1)c1nc(Cl)c(-c2ccc(F)cc2)[nH]1` [Example 193, (S)-7-amino-7-(4-chloro-5-(4-fluorophenyl)-1H-imidazol-2-yl)-1-(isoxazol-3-yl)heptan-1-one]: the IC50 was 7.4 nM on human HDAC2 ([…] nM enzyme); 1600 nM at human HDAC8 ([…] nM enzyme); 1.8 nM on human HDAC1 [2]; 1.8 nM in [3]; at least 45000 nM on HDAC6 [4]. In addition, the EC50 turned out to be 130 nM in the assay with KARN cells (Jurkat 2C4) [8] (setting [11]) and 1800 nM in the assay with KARN cells (Jurkat 2C4) [8] (setting [12]).

`CN(C)CC(=O)N[C@@H](CCCCCC(=O)c1ccon1)c1nc(Cl)c(-c2ccc(F)cc2)[nH]1` [Example 194, (S)-N-(1-(4-chloro-5-(4-fluorophenyl)-1H-imidazol-2-yl)-7-(isoxazol-3-yl)-7-oxoheptyl)-2-(dimethylamino)acetamide]: the half-maximal inhibitory concentration (IC50) at human HDAC2 ([…] nM enzyme) is 0.69 nM; on human HDAC8 ([…] nM enzyme), 19 nM; against human HDAC1 [2] it was 0.2 nM; in assay [3] it was 0.1 nM; against HDAC6 [4], 9500 nM. The EC50 in the assay on KARN cells (Jurkat 2C4) [8] (setting [11]) was found to be 3.2 nM; in the assay with KARN cells (Jurkat 2C4) [8] (setting [12]) it was 15 nM.
